SMILES strings stand for the structures. Where two headings read alike, the source gives them in different places. Bounds are passed on as bounds.

Data set [1] has as its system P493-6 (myc "on") cells. Nature of the data set: Cell Proliferation Assay (72 hrs, Cell Titer Glo or Viacount FACS). Type of data set: cell-based. As for the experimental part:
P493-6 (myc “on”) cells were maintained in growth media (RPMI-1640, 10% FBS, 2 mM glutamine, 100 units/ml Penicillin and 100 μg/ml streptomycin) at 37° C. with 5% CO2. For compound assay, P493-6 cells were plated in 96-well V-bottom plates on the day of compound addition in 50 μl of growth media at a cell density of 200,000 cells/ml (10,000 cells/well). Compounds were serially diluted in 100% DMSO at 200-times the final concentration. Compounds were diluted 100-fold into growth media and then 50 μl of this mixture was added to cell plates making the final concentration of DMSO 0.5%. Cells were incubated with compound for 72 hrs at 37° C. with 5% CO2 and analyzed for antiproliferative effects either by Cell Titer Glo (Promega) or FACS analysis using the Viacount (Millipore) kit on the Guava instrument.

Data set [2] is described as follows: Caco-2 Permeability Assay (bidirectional). Type of data set: in vitro ADME. Particulars: human. From the text: (§1) Caco-2 cells are commonly used in a confluent monolayer on a cell culture insert filter. When cultured in this format and under specific conditions, the cells become differentiated and polarized such that their phenotype, morphologically and functionally resembles the enterocytes lining the small intestine. The cell monolayer provides a physical and biochemical barrier to the passage of small molecules, and is widely used across the pharmaceutical industry as an in vitro model of the human small intestinal mucosa to predict the absorption of orally administered drugs (Hidalgo et al., Gastroenterology, 1989; Artursson, J. Pharm. Sci., 1990). The correlation between the in vitro apparent permeability (P ? app) across Caco-2 monolayers and the in vivo absorption is well established (Artursson et al., Biochem. Biophys. Res. Comm., 1991).
(§2) The present assay was used to determine the bidirectional permeability of the compounds of the invention through Caco-2 cell monolayers. Caco-2 cells were grown in confluent monolayers where the media of both the apical (A) and basolateral (B) sides were at pH 7.4. Compounds were dosed at 1 μM in the presence of 200 μM Lucifer Yellow, on the apical side (A→B) or the basolateral side (B→A) for assessment, in duplicate.
(§3) The absorption potential of compounds were classified as either Low (P-app <1×10^−6 cm/s) or High (P-app >1×10^−6 cm/s).
(In general: Caco-2 cells form a polarised layer with tight junctions and transporters.)

The subject of data set [3] is Caco-2 cell monolayers. The data set is described as follows: Caco-2 Permeability Assay (bidirectional). Type of data set: in vitro ADME.
Text: as §1, §2, §3

Data set [4] deals with recombinant form of Glutaminase 1 (GAC) (Homo sapiens, UniProt O94925). The data set is described as follows: Recombinant Enzyme Assay (GAC coupled to GDH, NADH absorbance, no preincubation). As to conditions: no preincubation; read-out: GAC Delta N2 IC50 no preinc. In kind it is biochemical. A digest of the protocol:
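GAC (4 nM) in Tris-HCl pH 8.0 with 150 mM K2HPO4, EDTA, BSA, DTT, plus 4 units/ml GDH and 4 mM ADP, without preincubation. Absorbance at 340 nm was read kinetically for 15 min at 20° C. Slopes (mAU/min) were compared with DMSO-only and control-compound wells on the same plate.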

Data set [5] deals with HCT116 colon carcinoma xenograft. Nature of the data set: Xenograft Efficacy Studies (HCT116 colon carcinoma xenograft). In kind it is in vivo, scid/bg mice. Particulars: intraperitoneal administration twice daily to mice, FIG. 1. As for the experimental part:
Certain compounds were assayed for in vivo efficacy in xenograft models as follows.
Female scid/bg mice, approximately 6 weeks of age, were implanted subcutaneously on the right flank with 5×10^6 HCT116 cells per mouse in a volume of 100 uL of sterile PBS. When tumors reached a volume of 50-100 mm^3, mice were randomized to groups of n=10 to receive either vehicle or test compound delivered twice daily by intraperitoneal injection. Tumors were measured three times per week using Vernier calipers and tumor volume calculated using the formula: Volume=(Length×Width^2/2), where length and width are the longest perpendicular sides of the tumor. Dosing continued twice daily until control tumors reached a size of 2000 mm^3. Statistical comparisons were made using a 2-way ANOVA with Bonferroni post-test.

As usually defined, the Papp A→B is how fast a substance crosses the layer from the apical side. Usually Papp B→A stands for how fast a substance crosses the layer from the basolateral side. In the case of `O=C(Cc1cccc(OC(F)(F)F)c1)Nc1ccc(CCCCc2nnc(NC(=O)Cc3ccccn3)s2)nn1` [Compound 670], the IC50 in data set [1] (P493-6 cells, 72 h, read-out: Cell prolif P493 72h) came to 30 nM. The recovery at 120 min, 1 μM in data set [2] (Caco-2, pH 7.4, Direction A→B, 1 μM, 120 minutes, pH 7.4) was 70%; in data set [2] (Caco-2, pH 7.4, Direction B→A, 1 μM, 120 minutes, pH 7.4) it was 72%. Moreover, in data set [2] (Caco-2, Direction A→B, 1 μM, 120 minutes, pH 7.4, unit not given (thresholds in 10^−6 cm/s)), the apical-to-basolateral permeability (Papp A→B) at 120 min, 1 μM was 9.64 ×10⁻⁶ cm/s. The apparent permeability from basolateral to apical (Papp B→A) at 120 min, 1 μM in data set [2] (Caco-2, Direction B→A, 1 μM, 120 minutes, pH 7.4, unit not given (thresholds in 10^−6 cm/s)) was 59.6 ×10⁻⁶ cm/s. Also, the permeability class (Low/High absorption potential) at 120 min, 1 µM in data set [2] (Caco-2, absorption potential, read-out: Permeability Classification) is above 1 ×10⁻⁶ cm/s. Moreover, in data set [3], the “Significant Efflux” value was “Yes (efflux ratios being significant when greater than or equal to 3 when the Papp (B→A) was greater than or equal to 1×10^−6 cm/s)”.

As for `CC(C)(C)OC(=O)Nc1ccc(CC(=O)Cc2nnc(CCCCc3nnc(NC(=O)Cc4ccc(NC(=O)OC(C)(C)C)cc4)s3)s2)cc1` [Compound 192], the IC50 in data set [4] is above 20000 nM; in data set [1] (P493-6, 72 h, read-out: Cell prolif P493 72h IC50, P493-6 cells, 72 h) it was 30 nM.

On to `O=C(CCN1CCOCC1)OCC(C(=O)Nc1nnc(CCCCc2nnc(NC(=O)C(COC(=O)CCN3CCOCC3)c3ccccc3)s2)s1)c1ccccc1` (centres unmarked) [Compound 188, {[5,5′-(butane-1,4-diyl)-bis(1,3,4-thiadiazole-5,2-diyl)]-bis(azanediyl)}-bis(3-oxo-2-phenylpropane-3,1-diyl)-bis(3-morpholinopropanoate)], for which the IC50 in data set [4] is 2000 nM. In addition, the tumor size result in data set [5] is “reduced tumor size”.

The values above are taken from US8604016B2, “Heterocyclic inhibitors of glutaminase” (Calithera Biosciences Inc., priority 2011, dated 2013).
